Test results as given in ChEMBL document CHEMBL1156472, “Structural variation governs substrate specificity for organic anion transporter (OAT) homologs. Potential remote sensing by OAT family members” (J Biol Chem, 2007).

Target: T1, Solute carrier family 22 member 20 (Mus musculus, UniProt Q80UJ1)
T1 sequence (Q80UJ1 whole entry): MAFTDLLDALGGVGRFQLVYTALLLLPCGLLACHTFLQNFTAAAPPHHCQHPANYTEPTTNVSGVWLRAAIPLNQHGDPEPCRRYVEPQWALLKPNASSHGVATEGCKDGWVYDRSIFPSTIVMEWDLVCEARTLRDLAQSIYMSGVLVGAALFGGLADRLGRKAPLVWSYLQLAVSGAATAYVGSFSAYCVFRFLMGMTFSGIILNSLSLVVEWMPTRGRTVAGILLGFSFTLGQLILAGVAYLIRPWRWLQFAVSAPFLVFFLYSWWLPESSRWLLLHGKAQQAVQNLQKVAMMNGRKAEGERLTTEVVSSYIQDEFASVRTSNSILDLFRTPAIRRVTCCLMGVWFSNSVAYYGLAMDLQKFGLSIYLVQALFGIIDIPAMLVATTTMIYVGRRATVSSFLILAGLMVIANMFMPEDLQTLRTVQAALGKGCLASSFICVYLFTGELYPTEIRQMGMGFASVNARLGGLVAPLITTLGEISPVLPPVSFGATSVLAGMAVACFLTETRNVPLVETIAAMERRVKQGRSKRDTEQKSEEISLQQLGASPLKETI
Assay: Inhibition of mouse Oat6-mediated [3H]ES uptake in Xenopus oocytes after 1 hr
Type: cell-based, Oocyte
Settings: read-out: Ki

Point of comparison: O=C(O)C(O)Cc1ccc(O)cc1 (stereo not drawn), Ki 182 µM. Against it:
- CCCC(=O)O [BUTYRIC ACID] — 2.2-fold lower, 82 µM
- C[C@@H]1Cc2c(Cl)cc(C(=O)N[C@@H](Cc3ccccc3)C(=O)O)c(O)c2C(=O)O1 [3R14S-OCHRATOXIN A] — 3.7-fold lower, 49 µM
- CC(=O)Oc1ccccc1C(=O)O [ASPIRIN] — 1.8-fold lower, 101 µM
- O=C(O)c1ccccc1O [SALICYLIC ACID] — 4.1-fold lower, 44 µM
- O=C(O)c1ccccc1 [BENZOIC ACID] — 13-fold lower, 13.8 µM
- CCCCC(CC)C(=O)O (stereo not drawn) [2-ETHYLHEXANOIC ACID] — 28-fold lower, 6.6 µM
- O=C(O)C(=O)Cc1ccc(O)cc1 [4-HYDROXYPHENYLPYRUVIC ACID] — 2.8-fold lower, 66 µM
- CC(O)CC(=O)O (stereo not drawn) [3-HYDROXYBUTYRIC ACID, (+/-)-] — within 1.5-fold, 191 µM
- O=C(O)c1ccccc1-c1c2cc(Br)c(=O)c(Br)c-2oc2c(Br)c(O)c(Br)cc12 — 41-fold lower, 4.4 µM
- O=C(O)CCCCCCC(=O)O [OCTANEDIOATE] — 6.2-fold higher, 1130 µM
- CCC(=O)O [PROPIONIC ACID] — 1.5-fold higher, 279 µM
- CCCCC[C@H](O)/C=C/[C@H]1[C@H](O)CC(=O)[C@@H]1C/C=C\CCCC(=O)O [DINOPROSTONE] — 10-fold lower, 18 µM
- CC(C)Cc1ccc(C(C)C(=O)O)cc1 (stereo not drawn) [IBUPROFEN] — 170-fold lower, 1.1 µM
- CC(C)C(O)C(=O)O (stereo not drawn) — 1.7-fold higher, 315 µM
- O=C(O)CNC(=O)c1ccccc1 [HIPPURIC ACID] — 1.7-fold higher, 312 µM
- CC1(C)S[C@@H]2[C@H](NC(=O)C(C(=O)O)c3ccccc3)C(=O)N2[C@H]1C(=O)O (stereo partly drawn) [CARBENICILLIN DISODIUM] — 7.3-fold higher, 1330 µM
- CC(=O)C(=O)O [PYRUVATE] — within 1.5-fold, 271 µM
- O=C(O)CCCCC(=O)O [ADIPIC ACID] — 8.7-fold higher, 1580 µM
- CC(=O)NC(CC(=O)O)C(=O)O (stereo not drawn) — 150-fold higher, 27800 µM
- CC(C)CC(=O)O [3-METHYLBUTANOIC ACID] — 5.6-fold lower, 32.3 µM
- Nc1ccc(C(=O)NCC(=O)O)cc1 [AMINOHIPPURIC ACID] — 2.5-fold higher, 446 µM
- O=C(O)CCCC(=O)O [GLUTARATE] — 30-fold higher, 5410 µM
- CC1(C)S[C@@H]2[C@H](NC(=O)Cc3ccccc3)C(=O)N2[C@H]1C(=O)O (single isomer, unassigned) [PENICILLIN G SODIUM] — 2.5-fold higher, 452 µM
- CCCN(CCC)S(=O)(=O)c1ccc(C(=O)O)cc1 [PROBENECID] — 22-fold lower, 8.4 µM
- CCCCCC(=O)O [HEXANOATE] — 20-fold lower, 9 µM
- O=C(O)C(=O)Cc1ccccc1 [PHENYLPYRUVATE] — 6.3-fold lower, 29 µM
- CN(Cc1cnc2nc(N)nc(N)c2n1)c1ccc(C(=O)NC(CCC(=O)O)C(=O)O)cc1 (single isomer, unassigned) [METHOTREXATE] — 3.3-fold higher, 597 µM
- O=C1OC2(c3ccc(O)cc3Oc3cc(O)ccc32)c2ccccc21 [FLUORESCEIN] — 1.8-fold lower, 99 µM
- C[C@]12CC[C@@H]3c4ccc(OS(=O)(=O)O)cc4CC[C@H]3[C@@H]1CCC2=O [ESTRONE SULFURIC ACID] — 3.1-fold lower, 58 µM
- CCCCCCC(=O)O [HEPTANOATE] — 22-fold lower, 8.2 µM
- O=C(O)/C=C/C(=O)O [FUMARIC ACID] — higher, > 30000 µM
- C[C@]12CC[C@@H]3c4ccc(OS(=O)(=O)O)cc4CC[C@H]3[C@@H]1CC[C@@H]2OS(=O)(=O)O [ESTRADIOL DISULFATE] — 40-fold higher, 7210 µM
- CC1(C)S[C@@H]2[C@H](NC(=O)[C@H](C(=O)O)c3ccsc3)C(=O)N2[C@H]1C(=O)O [TICARCILLIN] — 2.9-fold higher, 533 µM

Same assay, conditions: read-out: pKi (converted)

Point of comparison: C[C@H](O)CC(=O)O, Ki 191 µM. Against it:
- CC(=O)N[C@@H](CC(=O)O)C(=O)O — 140-fold higher, 27500 µM
- CCCC[C@H](CC)C(=O)O — 29-fold lower, 6.61 µM
- CC(C)[C@H](O)C(=O)O — 1.7-fold higher, 316 µM
- CC(C)[C@@H](O)C(=O)O [DEAMINOHYDROXYVALINE] — 1.7-fold higher, 316 µM
- C[C@@H](O)CC(=O)O [(R)-3-HYDROXYBUTANOATE] — the same, 191 µM
- O=C(O)[C@@H](O)Cc1ccc(O)cc1 — within 1.5-fold, 182 µM
- CCCC[C@@H](CC)C(=O)O — 29-fold lower, 6.61 µM
- O=C(O)/C=C/C(=O)O [FUMARIC ACID] — higher, > 31600 µM

Target: T1, Solute carrier family 22 member 20
Assay: Activity of mouse Oat6 expressed in Xenopus oocytes assessed as drug uptake
Type: cell-based
Settings: oocyte

Point of comparison: C[C@@H]1Cc2c(Cl)cc(C(=O)N[C@@H](Cc3ccccc3)C(=O)O)c(O)c2C(=O)O1 [3R14S-OCHRATOXIN A], Vmax 4.8 pmol/h. Against it:
- CCCCC[C@H](O)/C=C/[C@H]1[C@H](O)CC(=O)[C@@H]1C/C=C\CCCC(=O)O [DINOPROSTONE] — lower, 0.9 pmol/h
- CC(C)Cc1ccc(C(C)C(=O)O)cc1 (stereo not drawn) [IBUPROFEN] — lower, 0.28 pmol/h
- Nc1ccc(C(=O)NCC(=O)O)cc1 [AMINOHIPPURIC ACID] — lower, 4.6 pmol/h
- C[C@]12CC[C@@H]3c4ccc(OS(=O)(=O)O)cc4CC[C@H]3[C@@H]1CCC2=O [ESTRONE SULFURIC ACID] — higher, 40 pmol/h
